{"source": "patent US10597388B2", "about": "“Pyridazinone herbicides” (FMC CORPORATION, priority 2014, dated 2020)", "assay_in_all_cases": "Test D controlled growth environment herbicide test, pre- and postemergence", "type_in_all_cases": "in vivo", "key": {"[1]": {"tested_on": "speedwell (bird's-eye speedwell, Veronica persica)", "summary_of_the_method": "(§1)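 Species sown in silt loam and sprayed preemergence, or grown in peat-based medium to 2–18 cm (1- to 4-leaf stage) and sprayed postemergence, with compounds in non-phytotoxic solvent plus surfactant. Visual injury scored versus controls after 14–21 d in a controlled environment, 0 (no effect) to 100 (complete control).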"}, "[2]": {"tested_on": "bromegrass, downy (downy bromegrass, Bromus tectorum)", "summary_of_the_method": "as §1"}, "[3]": {"tested_on": "ryegrass, Italian (Italian ryegrass, Lolium multiflorum)", "summary_of_the_method": "as §1"}, "[4]": {"tested_on": "barley, winter (winter barley, Hordeum vulgare)", "summary_of_the_method": "as §1"}, "[5]": {"tested_on": "buckwheat, wild (wild buckwheat, Polygonum convolvulus)", "summary_of_the_method": "as §1"}, "[6]": {"tested_on": "lambsquarters (Chenopodium album)", "summary_of_the_method": "as §1"}, "[7]": {"tested_on": "chickweed (common chickweed, Stellaria media)", "summary_of_the_method": "as §1"}, "[8]": {"tested_on": "chamomile (scentless chamomile, Matricaria inodora)", "summary_of_the_method": "as §1"}, "[9]": {"tested_on": "field poppy (Papaver rhoeas)", "summary_of_the_method": "as §1"}, "[10]": {"tested_on": "oilseed rape (Brassica napus)", "summary_of_the_method": "as §1"}, "[11]": {"tested_on": "canarygrass (Phalaris minor)", "summary_of_the_method": "as §1"}, "[12]": {"tested_on": "blackgrass (Alopecurus myosuroides)", "summary_of_the_method": "as §1"}, "[13]": {"tested_on": "galium (catchweed bedstraw, Galium aparine)", "summary_of_the_method": "as §1"}, "[14]": {"conditions": "Postemergence, 31 g ai/ha, scale 0 to 100 (0 no effect, 100 complete control)"}, "[15]": {"conditions": "Postemergence, 125 g ai/ha, visual rating on scale 0 (no effect) to 100 (complete control), 14 to 21 d"}, "[16]": {"conditions": "Postemergence, 250 g ai/ha, scale 0 to 100 (0 no effect, 100 complete control)"}, "[17]": {"conditions": "Preemergence, 125 g ai/ha, scale 0 to 100 (0 no effect, 100 complete control)"}, "[18]": {"conditions": "Preemergence, 250 g ai/ha, scale 0 to 100 (0 no effect, 100 complete control)"}, "[19]": {"conditions": "postemergence, 62 g ai/ha, scale 0 to 100, 0 no effect, 100 complete control"}, "[20]": {"conditions": "Preemergence, 62 g ai/ha, scale 0 to 100 (0 no effect, 100 complete control)"}}}
{"compound": "Cc1cc(C)c2sc(C)c(-c3c(OC(=O)OCCCl)c(C)nn(C)c3=O)c2c1", "note": "[Compound 85]", "values": [{"measurement": "Speedwell plant response rating", "setting": "[1]; [14]", "value": 35}, {"measurement": "Plant response rating, Speedwell", "setting": "[1]; [15]", "value": 80}, {"measurement": "Plant response rating, Speedwell", "setting": "[1]; [16]", "value": 100}, {"measurement": "Plant response rating (scale of 0 to 100), Speedwell", "setting": "[1]; Preemergence, 31 g ai/ha", "value": 50}, {"measurement": "Plant response rating (scale of 0 to 100), Speedwell", "setting": "[1]; Preemergence, 62 g ai/ha", "value": 90}, {"measurement": "Plant response rating, Speedwell", "setting": "[1]; [17]", "value": 100}, {"measurement": "Plant response rating, Speedwell", "setting": "[1]; [18]", "value": 100}, {"measurement": "Plant response rating, Speedwell", "setting": "[1]; [19]", "value": 70}, {"measurement": "Bromegrass, Downy plant response rating", "setting": "[2]; [14]", "value": 30}, {"measurement": "Plant response rating, Bromegrass, Downy", "setting": "[2]; [15]", "value": 35}, {"measurement": "Plant response rating, Bromegrass, Downy", "setting": "[2]; [16]", "value": 60}, {"measurement": "Plant response rating (scale of 0 to 100), Bromegrass, Downy", "setting": "[2]; Preemergence, 31 g ai/ha", "value": 15}, {"measurement": "Plant response rating, Bromegrass, Downy", "setting": "[2]; [20]", "value": 35}, {"measurement": "Plant response rating, Bromegrass, Downy", "setting": "[2]; [17]", "value": 55}, {"measurement": "Plant response rating, Bromegrass, Downy", "setting": "[2]; [18]", "value": 80}, {"measurement": "Plant response rating, Bromegrass, Downy", "setting": "[2]; [19]", "value": 30}, {"measurement": "Ryegrass, Italian plant response rating", "setting": "[3]; [14]", "value": 80}, {"measurement": "Plant response rating, Ryegrass, Italian", "setting": "[3]; [15]", "value": 85}, {"measurement": "Plant response rating, Ryegrass, Italian", "setting": "[3]; [16]", "value": 90}, {"measurement": "Plant response rating (scale of 0 to 100), Ryegrass, Italian", "setting": "[3]; Preemergence, 31 g ai/ha", "value": 55}, {"measurement": "Plant response rating (scale of 0 to 100), Ryegrass, Italian", "setting": "[3]; Preemergence, 62 g ai/ha", "value": 80}, {"measurement": "Plant response rating, Ryegrass, Italian", "setting": "[3]; [17]", "value": 85}, {"measurement": "Plant response rating, Ryegrass, Italian", "setting": "[3]; [18]", "value": 90}, {"measurement": "Plant response rating, Ryegrass, Italian", "setting": "[3]; [19]", "value": 85}, {"measurement": "Barley, Winter plant response rating", "setting": "[4]; [14]", "value": 0}, {"measurement": "Plant response rating, Barley, Winter", "setting": "[4]; [15]", "value": 5}, {"measurement": "Plant response rating, Barley, Winter", "setting": "[4]; [16]", "value": 10}, {"measurement": "Plant response rating (scale of 0 to 100), Barley, Winter", "setting": "[4]; Preemergence, 31 g ai/ha", "value": 0}, {"measurement": "Plant response rating, Barley, Winter", "setting": "[4]; [20]", "value": 0}, {"measurement": "Plant response rating, Barley, Winter", "setting": "[4]; [17]", "value": 0}, {"measurement": "Plant response rating, Barley, Winter", "setting": "[4]; [18]", "value": 15}, {"measurement": "Plant response rating, Barley, Winter", "setting": "[4]; [19]", "value": 0}, {"measurement": "Buckwheat, Wild plant response rating", "setting": "[5]; [14]", "value": 95}, {"measurement": "Plant response rating, Buckwheat, Wild", "setting": "[5]; [15]", "value": 100}, {"measurement": "Plant response rating, Buckwheat, Wild", "setting": "[5]; [16]", "value": 100}, {"measurement": "Plant response rating (scale of 0 to 100), Buckwheat, Wild", "setting": "[5]; Preemergence, 31 g ai/ha", "value": 20}, {"measurement": "Plant response rating, Buckwheat, Wild", "setting": "[5]; [20]", "value": 65}, {"measurement": "Plant response rating, Buckwheat, Wild", "setting": "[5]; [17]", "value": 80}, {"measurement": "Plant response rating, Buckwheat, Wild", "setting": "[5]; [18]", "value": 100}, {"measurement": "Plant response rating, Buckwheat, Wild", "setting": "[5]; [19]", "value": 100}, {"measurement": "Lambsquarters plant response rating", "setting": "[6]; [14]", "value": 80}, {"measurement": "Plant response rating, Lambsquarters", "setting": "[6]; [15]", "value": 95}, {"measurement": "Plant response rating, Lambsquarters", "setting": "[6]; [16]", "value": 95}, {"measurement": "Plant response rating (scale of 0 to 100), Lambsquarters", "setting": "[6]; Preemergence, 31 g ai/ha", "value": 25}, {"measurement": "Plant response rating (scale of 0 to 100), Lambsquarters", "setting": "[6]; Preemergence, 62 g ai/ha", "value": 100}, {"measurement": "Plant response rating, Lambsquarters", "setting": "[6]; [17]", "value": 100}, {"measurement": "Plant response rating, Lambsquarters", "setting": "[6]; [18]", "value": 100}, {"measurement": "Plant response rating, Lambsquarters", "setting": "[6]; [19]", "value": 85}, {"measurement": "Chickweed plant response rating", "setting": "[7]; [14]", "value": 90}, {"measurement": "Plant response rating, Chickweed", "setting": "[7]; [15]", "value": 100}, {"measurement": "Plant response rating, Chickweed", "setting": "[7]; [16]", "value": 100}, {"measurement": "Plant response rating (scale of 0 to 100), Chickweed", "setting": "[7]; Preemergence, 31 g ai/ha", "value": 100}, {"measurement": "Plant response rating (scale of 0 to 100), Chickweed", "setting": "[7]; Preemergence, 62 g ai/ha", "value": 100}, {"measurement": "Plant response rating, Chickweed", "setting": "[7]; [17]", "value": 100}, {"measurement": "Plant response rating, Chickweed", "setting": "[7]; [18]", "value": 100}, {"measurement": "Plant response rating, Chickweed", "setting": "[7]; [19]", "value": 100}, {"measurement": "Chamomile plant response rating", "setting": "[8]; [14]", "value": 75}, {"measurement": "Plant response rating, Chamomile", "setting": "[8]; [15]", "value": 90}, {"measurement": "Plant response rating, Chamomile", "setting": "[8]; [16]", "value": 85}, {"measurement": "Plant response rating, Chamomile", "setting": "[8]; [19]", "value": 75}, {"measurement": "Field Poppy plant response rating", "setting": "[9]; [14]", "value": 70}, {"measurement": "Plant response rating, Field Poppy", "setting": "[9]; [15]", "value": 80}, {"measurement": "Plant response rating, Field Poppy", "setting": "[9]; [16]", "value": 95}, {"measurement": "Plant response rating, Field Poppy", "setting": "[9]; [18]", "value": 95}, {"measurement": "Plant response rating, Field Poppy", "setting": "[9]; [19]", "value": 90}, {"measurement": "Oilseed Rape plant response rating", "setting": "[10]; [14]", "value": 65}, {"measurement": "Plant response rating, Oilseed Rape", "setting": "[10]; [15]", "value": 70}, {"measurement": "Plant response rating, Oilseed Rape", "setting": "[10]; [16]", "value": 80}, {"measurement": "Plant response rating (scale of 0 to 100), Oilseed Rape", "setting": "[10]; Preemergence, 31 g ai/ha", "value": 0}, {"measurement": "Plant response rating (scale of 0 to 100), Oilseed Rape", "setting": "[10]; Preemergence, 62 g ai/ha", "value": 0}, {"measurement": "Plant response rating, Oilseed Rape", "setting": "[10]; [17]", "value": 20}, {"measurement": "Plant response rating, Oilseed Rape", "setting": "[10]; [18]", "value": 30}, {"measurement": "Plant response rating, Oilseed Rape", "setting": "[10]; [19]", "value": 70}, {"measurement": "Canarygrass plant response rating", "setting": "[11]; [14]", "value": 75}, {"measurement": "Plant response rating, Canarygrass", "setting": "[11]; [15]", "value": 85}, {"measurement": "Plant response rating, Canarygrass", "setting": "[11]; [16]", "value": 90}, {"measurement": "Plant response rating (scale of 0 to 100), Canarygrass", "setting": "[11]; Preemergence, 31 g ai/ha", "value": 80}, {"measurement": "Plant response rating (scale of 0 to 100), Canarygrass", "setting": "[11]; Preemergence, 62 g ai/ha", "value": 90}, {"measurement": "Plant response rating, Canarygrass", "setting": "[11]; [17]", "value": 90}, {"measurement": "Plant response rating, Canarygrass", "setting": "[11]; [18]", "value": 95}, {"measurement": "Plant response rating, Canarygrass", "setting": "[11]; [19]", "value": 85}, {"measurement": "Blackgrass plant response rating", "setting": "[12]; [14]", "value": 75}, {"measurement": "Plant response rating, Blackgrass", "setting": "[12]; [15]", "value": 90}, {"measurement": "Plant response rating, Blackgrass", "setting": "[12]; [16]", "value": 90}, {"measurement": "Plant response rating (scale of 0 to 100), Blackgrass", "setting": "[12]; Preemergence, 31 g ai/ha", "value": 75}, {"measurement": "Plant response rating, Blackgrass", "setting": "[12]; [20]", "value": 80}, {"measurement": "Plant response rating, Blackgrass", "setting": "[12]; [17]", "value": 85}, {"measurement": "Plant response rating, Blackgrass", "setting": "[12]; [18]", "value": 85}, {"measurement": "Plant response rating, Blackgrass", "setting": "[12]; [19]", "value": 80}, {"measurement": "Galium plant response rating", "setting": "[13]; [14]", "value": 85}, {"measurement": "Plant response rating, Galium", "setting": "[13]; [15]", "value": 100}, {"measurement": "Plant response rating, Galium", "setting": "[13]; [16]", "value": 100}, {"measurement": "Plant response rating (scale of 0 to 100), Galium", "setting": "[13]; Preemergence, 31 g ai/ha", "value": 30}, {"measurement": "Plant response rating (scale of 0 to 100), Galium", "setting": "[13]; Preemergence, 62 g ai/ha", "value": 70}, {"measurement": "Plant response rating, Galium", "setting": "[13]; [17]", "value": 75}, {"measurement": "Plant response rating, Galium", "setting": "[13]; [18]", "value": 100}, {"measurement": "Plant response rating, Galium", "setting": "[13]; [19]", "value": 95}]}
